Seven compounds from US20260042762A1 (Kymera Therapeutics, Inc., priority 2018, published 2026) can be followed below.

SMILES strings stand for the structures.

The target in this assay is T1, MerTK (Homo sapiens, UniProt Q12866).
T1 construct: endogenous in cells; host or cells: Jurkat cells
T1 sequence (Q12866 21-999): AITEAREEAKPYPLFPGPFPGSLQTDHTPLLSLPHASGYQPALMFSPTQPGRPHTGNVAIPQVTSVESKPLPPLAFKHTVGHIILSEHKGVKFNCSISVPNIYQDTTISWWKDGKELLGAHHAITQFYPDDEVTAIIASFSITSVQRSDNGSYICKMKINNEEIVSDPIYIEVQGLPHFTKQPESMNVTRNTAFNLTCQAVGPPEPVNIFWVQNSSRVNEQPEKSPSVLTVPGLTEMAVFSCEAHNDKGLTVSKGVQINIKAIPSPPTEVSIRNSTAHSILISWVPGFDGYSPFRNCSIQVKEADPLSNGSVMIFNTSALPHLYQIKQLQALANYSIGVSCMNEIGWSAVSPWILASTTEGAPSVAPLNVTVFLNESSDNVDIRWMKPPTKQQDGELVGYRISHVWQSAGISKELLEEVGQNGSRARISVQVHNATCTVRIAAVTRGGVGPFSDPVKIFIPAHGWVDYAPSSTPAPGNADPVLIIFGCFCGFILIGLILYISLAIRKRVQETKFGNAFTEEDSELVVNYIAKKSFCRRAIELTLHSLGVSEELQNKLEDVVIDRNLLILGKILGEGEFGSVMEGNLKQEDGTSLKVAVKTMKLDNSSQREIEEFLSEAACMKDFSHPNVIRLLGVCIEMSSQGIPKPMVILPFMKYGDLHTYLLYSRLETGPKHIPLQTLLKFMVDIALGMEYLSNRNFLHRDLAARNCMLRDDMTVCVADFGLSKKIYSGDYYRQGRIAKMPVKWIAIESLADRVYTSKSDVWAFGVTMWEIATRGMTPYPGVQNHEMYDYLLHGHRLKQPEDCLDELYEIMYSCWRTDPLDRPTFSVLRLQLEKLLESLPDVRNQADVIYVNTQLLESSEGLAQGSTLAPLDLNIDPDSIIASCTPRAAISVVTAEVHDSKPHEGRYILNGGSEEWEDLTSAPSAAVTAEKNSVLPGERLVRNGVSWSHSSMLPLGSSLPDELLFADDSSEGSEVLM
Description: MerTk degradation in Jurkat cells (Western blot). It counts as cell-based. To be noted: Jurkat, 4 h, 0.001-1 μM, 4 hour-incubation at 37° C., read-out: Jurkat Max % MerTK Degradation. The procedure, abridged:
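MerTK degradation was read by near-infrared Western blot, normalized to actin, in BCA-quantified lysates of Jurkat cells exposed to 0.001-1 μM compound for 4 h at 37 °C.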
On the technique in general: Immunoblotting shows a protein as a band on a membrane.
Take `CN1CCN(Cc2ccc(-c3ccc(CO[C@H]4CCC[C@@H]4NC(=O)c4cc(-c5cnn(CCOCCCc6ccc7c(c6)n(C)c(=O)n7C6CCC(=O)NC6=O)c5)cnc4N)cc3)cc2)CC1` (stereo partly drawn) [I-217, 2-Amino-5-[1-(2-[3-[1-(2,6-dioxopiperidin-3-yl)-3-methyl-2-oxo-1,3-benzodiazol-5-yl]propoxy]ethyl)pyrazol-4-yl]-N-[(1S,2S)-2-([4-[(4-methylpiperazin-1-yl)methyl]-[1,1-biphenyl]-4-yl]methoxy)cyclopentyl]pyridine-3-carboxamide]: the Dmax was 20 to 50%. Next, `CN1CCN(Cc2ccc(-c3ccc(CO[C@H]4CCC[C@@H]4NC(=O)c4cc(-c5cnn(CCOCCCc6cccc7c6n(C)c(=O)n7C6CCC(=O)NC6=O)c5)cnc4N)cc3)cc2)CC1` (stereo partly drawn) [I-218, 2-Amino-5-[1-(2-[3-[1-(2,6-dioxopiperidin-3-yl)-3-methyl-2-oxo-1,3-benzodiazol-4-yl]propoxy]ethyl)pyrazol-4-yl]-N-[(1S,2S)-2-([4-[(4-methylpiperazin-1-yl)methyl]-[1,1-biphenyl]-4-yl]methoxy)cyclopentyl]pyridine-3-carboxamide]: below 20%; `CCC[C@@H](C)Nc1ncc2c(n1)n([C@H]1CC[C@H](O)CC1)cc2[C@H]1CC[C@@H](CN2CCN(CCCO[C@H]3CCN(Cc4ccc5c(c4)n(C)c(=O)n5C4CCC(=O)NC4=O)C3)CC2)CC1` (stereo partly drawn) [I-219, 3-(3-methyl-2-oxo-5-[[(3S)-3-[3-(4-[[trans-4-[2-[(2S)-pentan-2-ylamino]-7-[trans-4-hydroxycyclohexyl]pyrrolo[2,3-d]pyrimidin-5-yl]cyclohexyl]methyl]piperazin-1-y1)propoxy]pyrrolidin-1-yl]methyl]-1,3-benzodiazol-1-yl)piperidine-2,6-dione; tris(formic acid)]: above 50%; `CCC[C@H](C)Nc1ncc2c(n1)n([C@H]1CC[C@H](O)CC1)cc2[C@H]1CC[C@@H](CN2CCN(CCCO[C@H]3CCN(Cc4ccc5c(c4)n(C)c(=O)n5C4CCC(=O)NC4=O)C3)CC2)CC1` (stereo partly drawn) [I-220, 3-(3-methyl-2-oxo-5-[[(3S)-3-[3-(4-[[4-[2-[(2S)-pentan-2-ylamino]-7-[trans-4-hydroxycyclohexyl]pyrrolo[2,3-d]pyrimidin-5-yl]cyclohexyl]methyl]piperazin-1-y1)propoxy]pyrrolidin-1-yl]methyl]-1,3-benzodiazol-1-y1)piperidine-2,6-dione]: above 50%. With `CCC[C@@H](C)Nc1ncc2c(n1)n([C@H]1CC[C@H](O)CC1)cc2[C@H]1CC[C@H](CN2CCN(CCCO[C@H]3CCN(Cc4ccc5c(c4)n(C)c(=O)n5C4CCC(=O)NC4=O)C3)CC2)CC1` (stereo partly drawn) [I-221, trans-3-(3-methyl-2-oxo-5-[[(3R)-3-[3-(4-[[(1r,4r)-4-[2-[(2S)-pentan-2-ylamino]-7-[4-hydroxycyclohexyl]pyrrolo[2,3-d]pyrimidin-5-yl]cyclohexyl]methyl]piperazin-1-y1)propoxy]pyrrolidin-1-yl]methyl]-1,3-benzodiazol-1-yl)piperidine-2,6-dione] the figure was 20 to 50%; with `CCC[C@H](C)Nc1ncc2c(n1)n([C@H]1CC[C@H](O)CC1)cc2[C@H]1CC[C@@H](CN2CCN(CCCOC3CN(Cc4ccc5c(c4)n(C)c(=O)n5C4CCC(=O)NC4=O)C3)CC2)CC1` (stereo partly shown) [I-222], above 50%; with `CCC[C@H](C)Nc1ncc2c(n1)n([C@H]1CC[C@H](O)CC1)cc2[C@H]1CC[C@H](CN2CCN(CCCOC3CN(Cc4ccc5c(c4)n(C)c(=O)n5C4CCC(=O)NC4=O)C3)CC2)CC1` (stereo partly drawn) [I-223, 3-[3-methyl-2-oxo-5-([3-[3-(4-[[trans-4-[2-[(2S)-pentan-2-ylamino]-7-[trans-4-hydroxycyclohexyl]pyrrolo[2,3-d]pyrimidin-5-yl]cyclohexyl]methyl]piperazin-1-y1)propoxy]azetidin-1-yl]methyl)-1,3-benzodiazol-1-yl]piperidine-2,6-dione], 20 to 50%.
